Results from article PMC9105583, “Stereoselective Synthesis and Anticancer Activity of 2,6-Disubstituted trans-3-Methylidenetetrahydropyran-4-ones” (Materials, 2022).
Where two headings read alike, the source gives them in different places.

Assays:
[1] = system: MCF-7 cells; assay: MTT assay, metabolic activity (cytotoxicity); assay type: cell-based, human; conditions: mean ± SEM
Method: (§1) Metabolic activity by MTT assay
(§2) The MTT (3-([…])-2,5-diphenyl tetrazolium bromide) assay was performed to assess the cytotoxicity of the investigated compounds. Briefly, HL-60, MCF-7 and HUVEC cells were seeded in 24-well plates at density of 8 × 10^4/mL. After 24 h incubation, cells were treated with various concentrations of the compounds and incubated for another 24 h or 48 h. Then, the cells were incubated with MTT solution (100 µL; 5 mg/mL in PBS) for 1.5 h and centrifuged. The formazan product was dissolved in DMSO, and the absorption was measured using FlexStation 3 Multi-Mode Microplate Reader (Molecular Devices, LLC, San Jose, CA, USA) at 560 nm. Assays were performed twice in triplicate for each analog.
(§3) The cytotoxic activity of the obtained methylidenetetrahydropyran-4-ones was investigated in two cancer cell lines, human promyelocytic leukemia (HL-60) and breast cancer adenocarcinoma (MCF-7), and in healthy umbilical vein endothelial cells (HUVEC), for comparison. An anticancer drug, carboplatin, was used as a reference compound. Metabolic activity of the cells was assessed after 48 h incubation with various concentrations of the analogs (Table 6). Purity of all final compounds was determined on the basis of their ^1H NMR spectra (signal-to-noise ratio and presence of unidentified signals) and was at least 98%, in most cases even over 99%.

[2] = system: HL-60 cells; assay: MTT assay, metabolic activity (cytotoxicity); assay type: cell-based, human; conditions: for IC50: 48 h incubation, MTT, mean ± SEM, read-out: IC50 HL-60
Method: as §1, §2, §3

[3] = system: HUVEC cells; assay: MTT assay, metabolic activity (cytotoxicity), normal cell line; assay type: cell-based, human; conditions: 48 h incubation, mean ± SEM
Method: as §1, §2, §3

[4] = system: Ehrlich ascites carcinoma; set-up: method as in PMID 3693116; conditions: cited from earlier work
[5] = system: human cancer cell lines, including lymphoid leukemia L1210 and leukemia P388; set-up: method as in PMID 3693116; conditions: cited from earlier work
[6] = system: HL-60 human leukemia cells; set-up: method as in PMID 32019209; conditions: cited from earlier work
[7] = Stability of the compound at room temperature; assay type: physicochemical
Method: Next, we made an attempt to transform the obtained 2-substituted-5-diethoxyphosphoryltetrahydropyran-4-ones 14a-d into target 2-substituted-5-methylidenetetrahydropyran-4-ones 15a-d, using Horner–Wadsworth–Emmons olefination. The reaction was carried out with 2 equivalents of K2CO3, 10 equivalents of formalin, THF as a solvent and room temperature for 3 h. Unfortunately, the obtained 3-methylidenetetrahydropyran-4-ones 15a-c,e, turned out to be unstable at room temperature and decomposed during column chromatography.

[8] = system: mouse lymphocytic leukemia cells (L1210); set-up: method as in PMID 18078344; conditions: cited from earlier work
[9] = Homo sapiens, MCF7, 48 h incubation

Molecule	IC50 [1, 9] [µM]	IC50 ([2]; Homo sapiens, HL-60, 48 h) [µM]	IC50 [2] [µM]	further results
C=C1C(=O)C[C@H](CC)O[C@H]1C(C)C (relative stereo) [Analog 13a, Trans-6-ethyl-2-isopropyl-3-methylidenetetrahydro-4H-pyran-4-one]	20.4 ± 0.35	21.3 ± 1		
C=C1C(=O)C[C@H](CC)O[C@H]1CCCC (relative stereo) [Analog 13b, Trans-2-butyl-6-ethyl-3-methylidenetetrahydro-4H-pyran-4-one]	106.5 ± 0.5	39.15 ± 0.15		
C=C1C(=O)C[C@H](CC)O[C@H]1c1ccccc1 (relative stereo) [Analog 13c, Trans-6-ethyl-3-methylidene-2-phenyltetrahydro-4H-pyran-4-one]	36 ± 0.41	11.8 ± 0.15		
C=C1C(=O)C[C@H](C(C)C)O[C@H]1CCCC (relative stereo) [Analog 13e, Trans-2-butyl-6-isopropyl-3-methylidenetetrahydro-4H-pyran-4-one]	> 150	78.8 ± 5.25		
C=C1C(=O)C[C@H](C(C)C)O[C@H]1c1ccccc1 (relative stereo) [Analog 13f, Trans-6-isopropyl-3-methylidene-2-phenyltetrahydro-4H-pyran-4-one]	69.7 ± 2.16	8.45 ± 0.05		IC50 ([3]; Homo sapiens, HUVEC): 11.9 ± 2.32 µM
C=C1C(=O)C[C@H](c2ccccc2)O[C@H]1CCCC (relative stereo) [Analog 13h, Trans-2-buthyl-3-methylidene-6-phenyltetrahydro-4H-pyran-4-one]			134 ± 1	IC50 ([1]; 48 h incubation): > 150 µM
C=C1C(=O)C[C@H](c2ccccc2)O[C@H]1c1ccccc1 (relative stereo) [Analog 13i, Trans-3-methylidene-2,6-diphenyltetrahydro-4H-pyran-4-one]	> 200	36 ± 1.41		
C=C1C(=O)C[C@H](c2ccc(OC)cc2)O[C@H]1C(C)C (relative stereo) [Analog 13j, Trans-2-isopropyl-6-(4-methoxyphenyl)-3-methylidenetetrahydro-4H-pyran-4-one]	9.11 ± 0.02	< 4	3.75 ± 0.07	IC50 ([3]; Homo sapiens, HUVEC): 4.25 ± 0.05 µM
C=C1C(=O)C[C@H](c2ccc(OC)cc2)O[C@H]1CCCC (relative stereo) [Analog 13k, Trans-2-butyl-6-(4-methoxyphenyl)-3-methylidenetetrahydro-4H-pyran-4-one]	> 100	> 100		
C=C1C(=O)C[C@H](c2ccc(OC)cc2)O[C@H]1c1ccccc1 (relative stereo) [Analog 13l, Trans-6-(4-methoxyphenyl)-3-methylidene-2-phenyltetrahydro-4H-pyran-4-one]	203 ± 56	25 ± 0.94		
C=C1C(=O)C[C@H]([c-]2cccc2)O[C@H]1C(C)C.[Fe+2].c1cc[cH-]c1 (relative stereo) [Analog 13m, Trans-6-ferrocenyl-2-isopropyl-3-methylidenetetrahydro-4H-pyran-4-one]			3.87 ± 0.16	IC50 ([1]; 48 h incubation): 5.73 ± 0.36 µM
C=C1C(=O)C[C@H]([c-]2cccc2)O[C@H]1c1ccccc1.[Fe+2].c1cc[cH-]c1 (relative stereo) [Analog 13o, Trans-6-ferrocenyl-3-methylidene-2-phenyltetrahydro-4H-pyran-4-one]			> 100	IC50 ([1]; 48 h incubation): > 100 µM
C=C1C(=O)[C@]2(C)C(=O)O[C@@]34C[C@H](C)C(C(=O)O)=C[C@@H]3CCC[C@@H](C)C[C@@H](C)[C@H]1OC24 (single isomer, unassigned; (+)) [(+)-okilactomycin]				in vivo activity [4]: in vivo activity; in vitro cytotoxicity [5]: exhibits in vitro cytotoxicity
C=C1C(=O)CC(C)(C)OC1C(C)C (stereo not drawn) [6-isopropyl-2,2-dimethyl-5-methylidenetetrahydropyran-4-one]				apoptosis [6]: induced apoptosis; cell cycle [6]: arrest of the cell cycle in the G2/M phase; cytotoxic activity [6]: very high cytotoxic activity
C=C1COC(c2ccc(OC)cc2)CC1=O (stereo not drawn) [Analog 15d, 2-(4-Methoxyphenyl)-5-methylidenetetrahydro-4H-pyran-4-one]	> 200	163 ± 7.07		cytotoxic activity ([2]; HL-60 and MCF-7, 48 h): practically inactive; stable for a prolonged period of time [7]: at least 7 days
N.N.O=C([O-])C1(C(=O)[O-])CCC1.[Pt+2] [Carboplatin, carboplatin, reference compound]			2.53 ± 0.2	IC50 ([1]; 48 h incubation): 3.76 ± 0.35 µM; IC50 [3]: 5.35 ± 0.05 µM
C[C@H]1CCC/C=C\[C@H]2C=C[C@H](O)[C@H](CC(=O)O1)O2 [aspergillide C]				cytotoxic activity [8]: showed cytotoxic activity
Trans-2-buthyl-6-ferrocenyl-3-methylidenetetrahydro-4H-pyran-4-one [Analog 13n]			62.6 ± 0.61	IC50 ([1]; 48 h incubation): > 100 µM
